{"source": "patent US20080193411A1", "about": "“Anti-viral Compounds” (Genelabs Technologies, Inc., priority 2006, published 2008)", "data": [{"tested_on": "HCV replication", "assay": "HCV replicon assay (luciferase), ET (Huh-lucubineo-ET) cell line", "type": "cell-based", "settings": "Hepatitis C virus; tested at 10 μM; ET (Huh-lucubineo-ET) replicon cells; luciferase activity 48-72 hours; relative to no compound control", "method": "A cell line, ET (Huh-lucubineo-ET) was used for screening of compounds of the present invention for inhibiting HCV replication. The ET cell line was stably transfected with RNA transcripts harboring a I389luc-ubi-neo/NS3-3′/ET; replicon with firefly luciferase-ubiquitin-neomycin phosphotransferase fusion protein and EMCV-IRES driven NS3-5B polyprotein containing the cell culture adaptive mutations (E1202G; T1280I; K1846T) (Krieger at al, 2001 and unpublished). The ET cells were grown in DMEM (Dulbeco's Modified Eagle's Medium), supplemented with 10% fetal calf serum, 2 mM Glutamine, Penicillin (100 IU/mL)/Streptomycin (100 μg/mL), 1× nonessential amino acids, and 250 μg/mL G418 (“Geneticin”). They were all available through Life Technologies (Bethesda, Md.). The cells were plated at 0.5-1.0×10^4 cells/well in the 96 well plates and incubated for 24 hrs before adding testing compounds. Then the compounds were added to the cells to achieve a final concentration of 0.1 nM to 50 μM and a final DMSO concentration of 0.5%. Luciferase activity were measured 48-72 hours later by adding a lysis buffer and the substrate (Catalog number Glo-lysis buffer E2661 and Bright-Glo luciferase system E2620 Promega, Madison, Wis.). Cells should not be too confluent during the assay. Percent inhibition of replication was plotted relative to no compound control. Under the same condition, cytotoxicity of the compounds was determined using cell proliferation reagent, WST-1 (Roche, Germany). The compounds showing antiviral activities, but no significant cytotoxicities were chosen to determine EC50 and TC50. For these determinations, a 10 point 2-fold serial dilution for each compound was used, which spans a concentration range of 1000 fold. EC50 and similarly TC50 values were calculated by fitting % inhibition at each concentration to the following equation:\n% inhibition=100%/[(IC50/[I])^b+1]\nwhere b is Hill's coefficient.\nIn some preferred embodiments compounds of Formula I will have a % inhibition of at least 20% when tested at 10 μM. In other embodiments the compounds of Formula I will have a % inhibition of at least 50% when tested at 10 μM.", "units": {"inhibition at 10 µM": "%"}, "values": [{"compound": "O=C(NC1CC1)c1ccc(-c2ccc3nc([C@@H]4CCCN4C(=O)OCc4ccccc4)sc3c2)cc1", "note": "[Compound 4022, 2-[6-(4-Cyclopropylcarbamoyl-phenyl)-benzothiazol-2-yl]-pyrrolidine-1-carboxylic acid benzylester]", "inhibition at 10 µM": 14.9}, {"compound": "N#Cc1ccc(-c2ccc3nc([C@@H]4CCCN4C(=O)OCc4ccccc4)[nH]c3c2)cc1", "note": "[Compound 4049, (S)-2-[6-(4-Cyano-phenyl)-1H-benzoimidazol-2-yl]-pyrrolidine-1-carboxylic acid benzyl ester]", "inhibition at 10 µM": 20}, {"compound": "O=C(NC1CC1)c1cccc(-c2ccc3nc([C@@H]4CCCN4C(=O)OCc4ccccc4)[nH]c3c2)c1", "note": "[Compound 4001, (S)-2-[6-(3-Cyclopropylcarbamoyl-phenyl)-1H-benzoimidazol-2-yl]-pyrrolidine-1-carboxylic acid benzyl ester]", "inhibition at 10 µM": 94.5}, {"compound": "O=C(Nc1cccc(-c2ccc3nc([C@@H]4CCCN4C(=O)OCc4ccccc4)[nH]c3c2)c1)C1CC1", "note": "[Compound 4037, (S)-2-{6-[3-(Cyclopropanecarbonyl-amino)-phenyl]-1H-benzoimidazol-2-yl}-pyrrolidine-1-carboxylic acid benzyl ester]", "inhibition at 10 µM": 97.6}, {"compound": "O=C(NCc1cccc(-c2ccc3nc([C@@H]4CCCN4C(=O)OCc4ccccc4)[nH]c3c2)c1)C1CC1", "note": "[Compound 4057, (S)-2-(6-{3-[(Cyclopropanecarbonyl-amino)-methyl]-phenyl}-1H-benzoimidazol-2-yl)-pyrrolidine-1-carboxylic acid benzyl ester]", "inhibition at 10 µM": 99.4}, {"compound": "O=C(OCc1ccccc1)N1CCC[C@H]1c1nc2ccc(-c3ccc4[nH]ccc4c3)cc2o1", "note": "[Compound 4039, (S)-2-[6-(1H-Indol-5-yl)-benzooxazol-2-yl]-pyrrolidine-1-carboxylic acid benzyl ester]", "inhibition at 10 µM": 49.6}, {"compound": "O=C(NC1CC1)c1ccc(-c2csc(NC[C@@H]3CCCN3C(=O)OCc3ccccc3)n2)cc1", "note": "[Compound 4055, (S)-2-{[4-(4-Cyclopropylcarbamoyl-phenyl)-thiazol-2-ylamino]-methyl}-pyrrolidine-1-carboxylic acid benzyl ester]", "inhibition at 10 µM": 44}, {"compound": "Cc1nc2cc(-c3ccc4nc([C@@H]5CCCN5C(=O)OCc5ccccc5)[nH]c4c3)ccc2s1", "note": "[Compound 4051, (S)-2-[6-(2-Methyl-benzothiazol-5-yl)-1H-benzoimidazol-2-yl]-pyrrolidine-1-carboxylic acid benzyl ester]", "inhibition at 10 µM": 32.8}, {"compound": "O=C(OCc1ccccc1)N1CCC[C@H]1c1nc2ccc(-c3cccs3)cc2[nH]1", "note": "[Compound 4029, (S)-2-(6-Thiophen-2-yl-1H-benzoimidazol-2-yl)-pyrrolidine-1-carboxylic acid benzyl ester]", "inhibition at 10 µM": 78.1}]}]}
